Entries after “also recorded” stand apart in the source; their conditions may differ.
Tests used:
[1] = test system: α-L-iduronidase (IDUA) mRNA; assay: IDUA mRNA expression in MPS I patient cells (normalized to GAPDH); assay type: cell-based, human; settings: 48 hours
Method: A cell culture experiment was performed in MPS-I patient-derived fibroblast cells. Cells were cultured overnight in a 384-well plate, at a concentration of 20,000 cells per well in advanced DMEM media (Life Technologies) supplemented with 15% FBS (Life technologies), 1× Glutamax (Life Technologies) and beta-mercaptoethanol (1:125000 dilution). The next day, cells were treated with the indicated compound with final concentrations including, but not limited to: 100 μ[…] and 0.12 μM depending on experiment. Treated cells were then incubated for 48 hours at 37° C., 5% CO2, 95% humidity. Cells were then washed with HBSS buffer, and 25 μM of the fluorogenic substrate 4-Methylumbelliferyl α-L-iduronide (free acid) (Santa Cruz Biotechnology) were added in the presence of 0.2M CHNaO2, 0.1% BSA, and 0.1% Triton X. After the addition of the 4-Methylumbelliferyl α-L-iduronide substrate, cells were incubated at 37° C. for 3 to 4 hours, placed at room temperature for 30 minutes to stabilize and alpha-L-iduronidase (IDUA) enzyme activity was measured using the EnVision Multilabel Plate Reader (Perkin Elmer, Inc.). Compounds were purchased from Tocris, Cayman Chemicals or Sigma-Aldrich. Tests were subsequently conducted to determine whether the increase in activity could in-part be attributed to increases in gene expression. […] Resveratrol and Piceatannol were added to patient cells for 48 hours, in the same conditions mentioned above.

alpha-L-iduronidase = alpha-L-iduronidase activity in plasma of treated mice; assay type: in vivo; settings: for alpha-L-iduronidase activity in plasma: 25 mg/kg or 50 mg/kg daily, 1 month; for α-iduronidase activity in plasma at 50 mg/kg/day: one month
[2] = test system: alpha-L-iduronidase (IDUA); assay: IDUA enzyme activity in MPS-I patient-derived fibroblast cells (4-Methylumbelliferyl α-L-iduronide substrate); assay type: cell-based, human; settings: compound 48 hours, vs buffer only control, FIG. 1
Method: A cell culture experiment was performed in MPS-I patient-derived fibroblast cells. Cells were cultured overnight in a 384-well plate, at a concentration of 20,000 cells per well in advanced DMEM media (Life Technologies) supplemented with 15% FBS (Life technologies), 1× Glutamax (Life Technologies) and beta-mercaptoethanol (1:125000 dilution). The next day, cells were treated with the indicated compound with final concentrations including, but not limited to: 100 μM, 30 μM, 10 μM, 3.3 μM, 1.1 μM, 0.37 μM and 0.12 μM depending on experiment. Treated cells were then incubated for 48 hours at 37° C., 5% CO2, 95% humidity. Cells were then washed with HBSS buffer, and 25 μM of the fluorogenic substrate 4-Methylumbelliferyl α-L-iduronide (free acid) (Santa Cruz Biotechnology) were added in the presence of 0.2M CHNaO2, 0.1% BSA, and 0.1% Triton X. After the addition of the 4-Methylumbelliferyl α-L-iduronide substrate, cells were incubated at 37° C. for 3 to 4 hours, placed at room temperature for 30 minutes to stabilize and alpha-L-iduronidase (IDUA) enzyme activity was measured using the EnVision Multilabel Plate Reader (Perkin Elmer, Inc.). Compounds were purchased from Tocris, Cayman Chemicals or Sigma-Aldrich.

Compound: Oc1cc(O)cc(/C=C/c2ccc(O)c(O)c2)c1 [CTI-101, piceatannol]
- IDUA mRNA level ([1]; FIG. 2, listed as Piceatannol): increase in IDUA mRNA expression
- IDUA mRNA level ([1]; FIG. 2, listed as piceatannol): increased the mRNA level
- alpha-L-iduronidase activity in plasma (alpha-L-iduronidase; FIG. 3): Increases in alpha-L-iduronidase activity
- alpha-L-iduronidase activity in plasma (alpha-L-iduronidase; FIG. 3, listed as piceatannol): elevation of α-iduronidase activity
- α-iduronidase activity in plasma at 50 mg/kg/day (alpha-L-iduronidase; FIG. 3): substantial boosts in enzyme activity

Compound: Oc1ccc(/C=C/c2cc(O)cc(O)c2)cc1 [CTI-102, 3,5,4′-trihydroxystilbene]
- IDUA mRNA level ([1]; FIG. 2, listed as resveratrol): increased the mRNA level; also recorded: increase in IDUA mRNA expression
- IDUA enzyme activity [2]: increase in IDUA activity
- alpha-L-iduronidase activity in plasma (alpha-L-iduronidase; FIG. 3): Increases in alpha-L-iduronidase activity
- alpha-L-iduronidase activity in plasma (alpha-L-iduronidase; FIG. 3, listed as resveratrol): elevation of α-iduronidase activity
- α-iduronidase activity in plasma at 50 mg/kg/day (alpha-L-iduronidase; FIG. 3): substantial boosts in enzyme activity
